Assay [1] deals with GluT-1. In words: In vivo GluT-1 gene expression in kidney, dose response (microarray). Details: species or system Swiss Webster male mice. Conditions: mice, low dose (30 mg/ml) or high dose (100 mg/ml), oral gavage once per day for 4 days; FIG. 3A. As to the method:
To investigate the dose response of compounds of the present invention, twelve Swiss Webster male mice (30-32 g) (obtained from Simonsen, Inc., Gilroy Calif.) were treated by oral gavage once per day for 4 days with a 4 ml/kg volume of either 0.5% carboxymethyl cellulose (CMC; Sigma-Aldrich, St. […] Four hours after the final dose, animals were anesthetized, sacrificed, and approximately 150 mg of liver and each kidney were isolated and stored in RNALATER solution (Ambion) at −20° C.
RNA from tissues obtained from the experiments described above was isolated using the following protocol. A 50 mg section of each organ was diced, 875 μl of RLT buffer (RNEASY kit; Qiagen Inc., Valencia Calif.) was added, and the pieces were homogenized for about 20 seconds using a rotor-stator POLYTRON homogenizer (Kinematica, Inc., Cincinnati Ohio). […] The RNA was eluted into 80 μL of water and quantitated with RIBOGREEN reagent (Molecular Probes, Eugene Oreg.). […] The absorbance at 260 and 280 nm was measured to determine RNA purity and concentration.
Alternatively, tissue samples were diced and homogenized in TRIZOL reagent (Invitrogen Life Technologies, Carlsbad Calif.) using a rotor-stator POLYTRON homogenizer (Kinematica). […] The absorbance at 260 and 280 nm was measured to determine RNA purity and concentration. […]

The nature of assay [2]: Blood glucose levels after 14 days oral dosing. It is filed as in vivo, male Sprague Dawley rats. Particulars: rats, 20, 60, 100, or 200 mg/kg oral gavage once daily for 14 days, overnight fast, day 15; FIG. 4. The procedure: The effect of compound administration on blood glucose levels was examined as follows. Fifty male Sprague Dawley rats (6-7 weeks old) obtained from Simonsen, Inc. were dosed with 0.5% CMC (Sigma-Aldrich) or compound B at 20, 60, 100, or 200 mg/kg body weight by oral gavage once daily for 14 consecutive days. Animals were monitored for changes in body weight and signs of overt toxicity and mortality. […] One sample of approximately 1 ml was collected into tubes containing EDTA for hematological analysis, and a second sample of approximately 1 ml was collected into a tube with no anticoagulant for serum chemistry analysis. Blood sample analyses were performed by IDEXX (West Sacramento, Calif.).

The subject of assay [3] is HIF-1α. In words: HIF-1α stabilization in cells, TRANSAM HIF-1 ELISA of nuclear fractions. It is filed as cell-based, Human. Particulars: epithelial cells (293A) and hepatocellular carcinoma (Hep3B); FIG. 12B. The procedure:
Stabilization of HIFα using compounds and methods of the present invention was examined as follows. Human cells derived from adenovirus-transformed fetal kidney epithelium (293A), cervical epithelial adenocarcinoma (HeLa), hepatocellular carcinoma (Hep3B), squamous carcinoma (SSC-25), and lung fibroblast (HLF) (see, e.g., American Type Culture Collection, Manassas Va.; and Qbiogene, Carlsbad Calif.) were separately seeded into 100 mm culture dishes and grown at 37° C., 20% O2, 10% CO2 in media as follows: HeLa cells in Dulbecco's Modification of Eagle's Medium (DMEM), 2% fetal bovine serum (FBS); HLF cells in DMEM, 10%FBS; 293A cells in DMEM, 5%FBS; and Hep3B cells in Minimal Essential Medium (MEM), Earle's BSS (Mediatech Inc., Herndon Va.), 2 mM L-glutamine, 0.1 mM non-essential amino acids, 1 mM sodium pyruvate, 10% FBS. When cell layers reached confluence, the media was replaced with OPTI-MEM media (Invitrogen Life Technologies, Carlsbad Calif.) and cell layers were incubated for approximately 24 hours in 20% O2, 10% CO2 at 37° C. Compound of the invention (one of compounds B, F, G, and H) or DMSO (0.5 to 1%) was then added to existing medium, and incubation was continued overnight.
Alternatively, nuclear fractions were prepared using a Nuclear Extract kit (Active Motif, Carlsbad Calif.) and were analyzed for HIF-1α using a TRANSAM HIF-1 ELISA kit (Active Motif) according to the manufacturer's instructions.
Background: In an ELISA, binding on a coated surface is turned into a signal by an enzyme label.

From US8124582B2, “Treatment of diabetes” (FibroGen, Inc., priority 2002, dated 2012) come the findings set out here.

In the case of `O=C(O)CNC(=O)c1nc(Cl)c2ccccc2c1O` [compound B, [(1-Chloro4-hydroxy-isoquinoline-3-carbonyl)-amino]-acetic acid], in assay [1], the “expression of the gene encoding GluT-1 in kidney” value is listed as “dose-dependent alteration”. The blood glucose levels entry in assay [2] is listed as “dose-dependent decrease”. Besides, in assay [3], the “HIFα stabilization and accumulation (ELISA) compared to vehicle-treated control cells” value was “stabilization and accumulation of HIFα”.
